Experimental findings from patent US10265345B2 (priority 2008, dated 2019) are described below.

For test [1], the system named is superoxide dismutase (SOD). The class given is in vivo, Male Wistar rats. Conditions: rat brain tissues, 3 mg/kg, 48 hours after permanent MCAO.
The test system of test [2] is acute cerebral ischemia (MCAO) in rats. The class given is in vivo, Male Wistar rats. Conditions: 3 mg/kg, 5 doses from 2 h after surgery, 48 h.
Test [3] deals with lactic acid in brain tissues. The test is described as follows: Level of lactic acid in brain tissues 48 hours after permanent MCAO. Conditions: rat brain tissues, 3 mg/kg. The class given is in vivo, Male Wistar rats.
Test [4] concerns acute cerebral ischemia (MCAO) in rats. On the set-up: species or system Male Wistar rats. Conditions: rat, in vivo, 3 mg/kg.

The structures appear in SMILES notation. Where two headings read alike, the source gives them in different places.

For the compound `CC1=NN(c2ccccc2)C(=O)C1` [Edaravone, edaravone], the figures for the “SOD Activity” value in test [1] and in test [1] (listed as edaravone) were 234.66 ± 15.85 U/mg pro and “significantly increased”, respectively. Also, the “Scores of MCAO neurological symptoms” value in test [2] (model group 5.3 ± 2.8) is on record as 4.3 ± 1.6; in test [2] (model group 5.3 ± 2.8, listed as edaravone) it was “no significant difference”. The “Level of Lactic acid” value was determined as 0.64 ± 0.08 mmol/g protein in test [3] (model 0.98 ± 0.09, sham 0.37 ± 0.01) and 0.64±0.08 mmol/g protein in test [3] (model 0.98 ± 0.09, sham 0.37 ± 0.01, listed as edaravone). Also, in test [4], the “Volume (area) of cerebral infarction” value was “decreased significantly”.
